{
  "source": "patent US20230405069A1",
  "about": "“METHODS OF TREATING AND […] CORONAVIRUS AND OTHER INDICATIONS, AND COMPOSITIONS FOR USE WITH SAME” (priority 2020, published 2023)",
  "tested_on": "viral infection",
  "assay": "Subjects with symptoms of viral infection treated with disclosed medicinal compositions (symptom improvement / recovery)",
  "assay_type": "in vivo, human",
  "details": "Patient 6; one paracetamol/acetaminophen on Day 1 of symptoms",
  "excerpt": "The disclosed compositions are useful in reducing symptoms and/or eliminating viruses in persons suffering from a viral infection or believed to be suffering from a viral infection. Eliminating a virus or an infection from a subject, as used herein, may be referred to as ‘curing’ a subject, for example wherein a subject that has tested positive for the virus (by DNA, RNA, protein, and/or antibody analysis) has no detectable virus (by the same or a different method) after treatment. In these subjects, adults may be administered about 2 ml to about 150 ml per composition per day as a single dose or separated into multiple doses. In some embodiments the subject may be administered the disclosed compounds once, twice, three, or more times a day. In some embodiments, for example, an adult may be administered about 5 ml to about 150 ml of each medicinal composition each day. In many embodiments, (for example where the dose is 15 ml/day) 5 ml is administered 3 times per day as a 5 ml dose. In other embodiments, a 5 ml/day dose may also be divided into 3 or more smaller doses for administration throughout the day—for example about 2 ml three times per day. […]",
  "data": [
    {"smiles": "CC(=O)Nc1ccc(O)cc1", "note": "[paracetamol/acetaminophen]", "values": [
      {"measurement": "effect on symptoms", "value": "symptoms persisted"}
    ]}
  ]
}
